From PMC11129196 (Journal of Medicinal Chemistry, 2024)
Values after ≈ are worked out from the molar mass of the structure shown. “Also recorded” adds a separate entry of the source. Blank lines part the entries; values can stand above or below the compound they belong to.

Legend:
smooth muscle myosin = smooth muscle myosin (Gallus gallus, UniProt P10587); assay: smooth muscle myosin ATPase assay; format: biochemical, chicken
slow skeletal myofibrils = slow skeletal myofibrils (Bos taurus, UniProt P63315); assay: slow skeletal myofibril ATPase assay; format: biochemical, bovine
fast skeletal myofibrils = fast skeletal myofibrils (Oryctolagus cuniculus, UniProt P02586+P02643); assay: fast skeletal myofibril ATPase assay; format: biochemical, rabbit
reconstituted sarcomeres = assay: sarcomere component swap experiment; format: biochemical, bovine, rabbit; conditions: four myosin S1/thin filament combinations; 1 and 2 at 40 μM
[1] = tested on: adult rat ventricular myocytes; assay: cardiomyocyte calcium transient experiments; format: cell-based; conditions: 10 μM, Fura dye
[2] = tested on: adult rat ventricular myocytes; assay: rat cardiomyocyte contractility assay; format: cell-based; conditions: 10 μM, 1 Hz, 37 °C, vs untreated cells
phosphodiesterase 3a = phosphodiesterase 3a (Homo sapiens, UniProt Q14432); assay: PDE-3 inhibition assay; format: biochemical
PDE-3 = conditions: cited from earlier work
solubility assessment = format: physicochemical; conditions: monopotassium phosphate JP2 buffer, pH 6.8
[3] = rat pharmacokinetic assessment, IV; format: in vivo; conditions: dosed IV in rats
[4] = solubility in the PDE-3 buffer solution; format: physicochemical

Sequence of fast skeletal myofibrils (P02586 whole entry): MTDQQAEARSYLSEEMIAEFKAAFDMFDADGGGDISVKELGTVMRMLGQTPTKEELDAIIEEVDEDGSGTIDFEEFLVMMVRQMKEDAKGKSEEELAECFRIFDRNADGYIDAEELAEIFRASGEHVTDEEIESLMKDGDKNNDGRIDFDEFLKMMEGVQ
Sequence of fast skeletal myofibrils (P02643 whole entry): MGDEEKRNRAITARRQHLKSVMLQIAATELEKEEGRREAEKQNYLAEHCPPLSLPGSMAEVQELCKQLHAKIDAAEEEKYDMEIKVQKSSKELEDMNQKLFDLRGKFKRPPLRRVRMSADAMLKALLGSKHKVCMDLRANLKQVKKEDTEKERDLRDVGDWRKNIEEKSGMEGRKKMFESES
Sequence of fast skeletal myofibrils (P02641 whole entry partner): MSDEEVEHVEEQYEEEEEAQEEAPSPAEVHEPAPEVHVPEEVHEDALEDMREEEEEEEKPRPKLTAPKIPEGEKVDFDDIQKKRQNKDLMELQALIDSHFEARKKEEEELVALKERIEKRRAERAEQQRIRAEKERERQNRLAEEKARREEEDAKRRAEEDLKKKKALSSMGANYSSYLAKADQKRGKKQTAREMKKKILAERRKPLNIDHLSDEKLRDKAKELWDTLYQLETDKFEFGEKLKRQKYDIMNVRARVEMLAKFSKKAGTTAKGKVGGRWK
Sequence of smooth muscle myosin (P10587 whole entry): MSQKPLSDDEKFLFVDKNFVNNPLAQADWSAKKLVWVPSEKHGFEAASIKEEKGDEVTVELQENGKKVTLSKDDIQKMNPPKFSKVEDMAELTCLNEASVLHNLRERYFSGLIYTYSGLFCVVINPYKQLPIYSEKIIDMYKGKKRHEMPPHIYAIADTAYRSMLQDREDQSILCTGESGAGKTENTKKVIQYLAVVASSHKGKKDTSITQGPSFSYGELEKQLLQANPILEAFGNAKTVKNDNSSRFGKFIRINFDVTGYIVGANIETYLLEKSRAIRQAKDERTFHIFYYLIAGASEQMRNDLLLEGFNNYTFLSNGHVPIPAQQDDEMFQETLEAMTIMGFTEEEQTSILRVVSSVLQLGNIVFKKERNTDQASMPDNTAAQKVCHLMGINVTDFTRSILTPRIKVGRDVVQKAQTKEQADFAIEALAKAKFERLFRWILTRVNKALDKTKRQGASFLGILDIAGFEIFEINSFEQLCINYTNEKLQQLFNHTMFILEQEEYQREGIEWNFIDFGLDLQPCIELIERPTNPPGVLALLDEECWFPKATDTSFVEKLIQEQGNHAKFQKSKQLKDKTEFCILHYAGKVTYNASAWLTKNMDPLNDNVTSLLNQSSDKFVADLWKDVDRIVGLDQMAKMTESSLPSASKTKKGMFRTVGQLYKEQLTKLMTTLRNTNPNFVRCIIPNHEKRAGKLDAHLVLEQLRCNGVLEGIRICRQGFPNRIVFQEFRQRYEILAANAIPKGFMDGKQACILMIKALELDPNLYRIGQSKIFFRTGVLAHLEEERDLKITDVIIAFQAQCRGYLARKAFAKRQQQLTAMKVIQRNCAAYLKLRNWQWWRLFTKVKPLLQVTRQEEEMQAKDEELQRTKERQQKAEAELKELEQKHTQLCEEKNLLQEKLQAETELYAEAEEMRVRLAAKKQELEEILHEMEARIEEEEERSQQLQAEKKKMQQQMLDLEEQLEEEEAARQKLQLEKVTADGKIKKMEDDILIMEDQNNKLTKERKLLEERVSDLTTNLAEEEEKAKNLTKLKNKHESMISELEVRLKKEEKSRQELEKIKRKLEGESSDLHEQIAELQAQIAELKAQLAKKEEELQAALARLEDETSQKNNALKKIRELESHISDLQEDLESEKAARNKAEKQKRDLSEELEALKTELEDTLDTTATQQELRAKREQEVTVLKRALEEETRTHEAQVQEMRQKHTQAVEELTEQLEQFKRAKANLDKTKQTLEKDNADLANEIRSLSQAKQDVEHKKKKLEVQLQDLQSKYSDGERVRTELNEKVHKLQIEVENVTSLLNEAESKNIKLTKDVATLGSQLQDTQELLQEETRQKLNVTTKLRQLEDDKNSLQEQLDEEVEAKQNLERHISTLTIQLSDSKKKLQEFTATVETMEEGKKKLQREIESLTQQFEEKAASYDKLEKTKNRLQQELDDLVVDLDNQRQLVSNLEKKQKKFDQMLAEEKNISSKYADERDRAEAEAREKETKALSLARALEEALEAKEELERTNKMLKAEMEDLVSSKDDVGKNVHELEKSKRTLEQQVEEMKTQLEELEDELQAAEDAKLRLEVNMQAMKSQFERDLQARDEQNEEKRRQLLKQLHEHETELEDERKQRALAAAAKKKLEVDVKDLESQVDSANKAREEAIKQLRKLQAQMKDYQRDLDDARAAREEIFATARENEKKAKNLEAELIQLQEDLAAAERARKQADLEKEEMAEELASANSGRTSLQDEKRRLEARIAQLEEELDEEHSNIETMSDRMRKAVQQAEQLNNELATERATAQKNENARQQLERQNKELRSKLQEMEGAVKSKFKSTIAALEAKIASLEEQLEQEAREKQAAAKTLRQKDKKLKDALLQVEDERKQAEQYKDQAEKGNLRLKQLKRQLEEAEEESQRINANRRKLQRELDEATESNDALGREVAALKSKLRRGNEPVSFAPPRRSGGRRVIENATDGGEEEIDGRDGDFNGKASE
Sequence of smooth muscle myosin (P02607 whole entry partner): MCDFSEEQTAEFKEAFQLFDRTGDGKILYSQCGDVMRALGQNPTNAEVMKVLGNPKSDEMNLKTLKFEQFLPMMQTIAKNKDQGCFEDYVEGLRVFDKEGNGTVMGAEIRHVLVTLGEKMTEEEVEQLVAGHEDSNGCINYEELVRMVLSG
Sequence of smooth muscle myosin (P02612 whole entry partner): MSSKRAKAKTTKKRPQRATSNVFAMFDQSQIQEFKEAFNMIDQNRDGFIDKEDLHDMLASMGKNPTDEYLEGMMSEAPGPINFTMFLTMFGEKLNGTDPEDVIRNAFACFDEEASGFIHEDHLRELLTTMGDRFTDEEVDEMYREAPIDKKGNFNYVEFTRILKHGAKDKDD
Sequence of phosphodiesterase 3a (Q14432 whole entry): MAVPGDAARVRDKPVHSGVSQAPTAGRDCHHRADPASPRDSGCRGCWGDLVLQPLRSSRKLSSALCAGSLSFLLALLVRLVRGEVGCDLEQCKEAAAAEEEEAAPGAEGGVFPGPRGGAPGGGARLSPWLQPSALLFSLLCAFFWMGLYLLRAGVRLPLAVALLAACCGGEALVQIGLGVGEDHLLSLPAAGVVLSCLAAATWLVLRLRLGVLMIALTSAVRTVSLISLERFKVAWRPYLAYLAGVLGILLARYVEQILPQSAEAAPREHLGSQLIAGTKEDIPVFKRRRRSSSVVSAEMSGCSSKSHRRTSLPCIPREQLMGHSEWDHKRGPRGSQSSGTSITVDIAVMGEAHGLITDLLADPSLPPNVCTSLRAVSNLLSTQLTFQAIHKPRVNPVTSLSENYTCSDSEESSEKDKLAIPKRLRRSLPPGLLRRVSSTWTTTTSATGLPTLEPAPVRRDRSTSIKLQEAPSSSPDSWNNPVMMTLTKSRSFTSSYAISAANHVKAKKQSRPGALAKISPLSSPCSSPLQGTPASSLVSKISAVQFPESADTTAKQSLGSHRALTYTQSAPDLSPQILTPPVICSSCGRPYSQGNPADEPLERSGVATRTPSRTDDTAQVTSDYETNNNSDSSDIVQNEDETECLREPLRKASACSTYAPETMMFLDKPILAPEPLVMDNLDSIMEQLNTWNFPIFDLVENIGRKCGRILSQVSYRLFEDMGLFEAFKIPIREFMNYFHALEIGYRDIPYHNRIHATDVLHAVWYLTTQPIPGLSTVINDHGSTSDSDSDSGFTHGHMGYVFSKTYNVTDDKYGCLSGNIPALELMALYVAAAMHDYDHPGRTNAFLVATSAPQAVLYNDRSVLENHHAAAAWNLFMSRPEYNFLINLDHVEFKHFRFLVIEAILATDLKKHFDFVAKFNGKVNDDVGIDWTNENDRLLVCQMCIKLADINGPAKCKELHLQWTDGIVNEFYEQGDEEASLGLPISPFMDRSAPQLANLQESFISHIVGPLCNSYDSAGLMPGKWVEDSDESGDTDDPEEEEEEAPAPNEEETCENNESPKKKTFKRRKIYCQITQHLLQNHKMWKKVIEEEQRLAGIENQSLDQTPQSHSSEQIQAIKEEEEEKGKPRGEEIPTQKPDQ

SMILES: O=c1[nH]c(=O)c2cc(S(=O)(=O)Nc3ccc(-c4ccccc4)cc3)ccc2[nH]1 [compound 3]
- smooth muscle myosin activity in words (smooth muscle myosin): did not activate
- slow skeletal myofibril AC40 (slow skeletal myofibrils): <0.1 µM
- fast skeletal myofibril activity in words (fast skeletal myofibrils): did not activate

SMILES: O=c1[nH]c(=O)c2cc(S(=O)(=O)Nc3ccc(N4CCCCCC4)cc3)ccc2[nH]1 [compound 2]
- activation of reconstituted sarcomeres in words (reconstituted sarcomeres): Only the reconstituted sarcomeres that contain the cardiac thin filament showed activation
- smooth muscle myosin activity in words (smooth muscle myosin): inactive; also recorded: did not activate
- intracellular calcium concentrations in words [1]: without changing intracellular calcium concentrations
- myocyte fractional shortening in words [2]: significantly increased myocyte fractional shortening
- fast skeletal myofibril activity in words (fast skeletal myofibrils): inactive; also recorded: did not activate

SMILES: O=c1[nH]c2ccc(S(=O)(=O)Nc3ccc(-c4ccccc4)cc3)cc2[nH]1 [compound 1]
- activation of reconstituted sarcomeres in words (reconstituted sarcomeres): Only the reconstituted sarcomeres that contain the cardiac thin filament showed activation

SMILES: C[C@@H]1CC(=O)NN=C1c1ccc(NN=C(C#N)C#N)cc1 [Levosimendan]
- PDE-3 inhibition in words (PDE-3): single digit nanomolar PDE-3 inhibition

SMILES: Cn1c(=O)[nH]c(=O)c2cc(S(=O)(=O)Nc3ccc(-c4ccccc4)cc3)ccc21 [compound 5]
- solubility [4]: 1.2 µM (≈ 0.489 µg/mL)

Now from value to compound:

- IC50 (phosphodiesterase 3a): 7 µM
SMILES: C[C@@H]1C[C@@H](C)CN(c2ccc(NS(=O)(=O)c3ccc4c(c3)c(=O)[nH]c(=O)n4C)cn2)C1 [compound 13, N-(6-((3R,5R)-3,5-Dimethylpiperidin-1-yl)pyridin-3-yl)-1-methyl-2,4-dioxo-1,2,3,4-tetrahydroquinazoline-6-sulfonamide]

- solubility at 12 h (solubility assessment): 6.7 µM (≈ 3.06 µg/mL)
- clearance relative to hepatic blood flow [3]: < 25 % of hepatic blood flow (Qh)
SMILES: CNc1cc2nc(C)[nH]c(=O)c2cc1S(=O)(=O)Nc1ccc(N2C[C@H](C)C[C@@H](C)C2)nc1 [compound 17, N-(6-((3R,5R)-3,5-Dimethylpiperidin-1-yl)pyridin-3-yl)-2-methyl-7-(methylamino)-4-oxo-3,4-dihydroquinazoline-6-sulfonamide]
